# Assay results taken from patent US20170136001A1, “METHOD OF TREATING A VIRAL INFECTION USING ELVITEGRAVIR COMBINATIONS” (priority 2007, published 2017).
# Assays:
# [1] = Study 2: steady-state pharmacokinetic interaction between atazanavir/r and the Compound (85 mg test, 150 mg reference); type: in vivo, human
# Text: Consideration was given to achieving equivalent Compound exposures in patients receiving and not receiving atazanavir using pharmacokinetic (bio-) equivalence comparisons (Pharsight Corporation, Mountain View, Calif., USA). Consideration was also given to minimizing the number of individuals with extreme outliers in (low or high) exposures.
# [2] = Example 2: pharmacokinetic interaction, EVG/ATV 300/400 mg versus EVG/r 300/100 mg, with midazolam CYP3A probe; conditions: midazolam oral syrup 5 mg with last dose; EVG/ATV vs. EVG/r
# Experimental: This study evaluated the safety and steady-state pharmacokinetics of the co-administered Compound and ATV.
# Healthy subjects received EVG/r 300/100 mg or EVG/ATV 300/400 mg in a randomized, crossover manner for 10 days each, with the last dose being coadministered with the CYP3A probe substrate midazolam (oral syrup; 5 mg) and pharmacokinetic (PK) sampling performed. […] ATV, midazolam, and ritonavir pharmacokinetics were also determined for descriptive statistics.
# [3] = Study 1: steady-state pharmacokinetic interaction between atazanavir/r and the Compound (200 mg); type: in vivo, human
# Text: This study evaluated the safety and steady-state pharmacokinetics of the coadministered Compound and ATV/r.
structure (smiles),measurement,setting,value
"COC(=O)N[C@H](C(=O)N[C@@H](Cc1ccccc1)[C@@H](O)CN(Cc1ccc(-c2ccccn2)cc1)NC(=O)[C@@H](NC(=O)OC)C(C)(C)C)C(C)(C)C [ATV, 1-[4-(pyridine-2-yl)-phenyl]-4(S)-2,5-bis-[N—(N-methoxycarbonyl-(L)-tert-leucyl)amino]-6-phenyl-2-axahexane]",Cmax % GMR (90% CI),"[1]; Study 2, coadministration (the Compound 85 mg + ATV/r 300/100 mg QD) : alone (the Compound reference 150 mg), 14 days, healthy subjects",96.0%
same,ATV exposures,[1]; with the reduced 85 mg dose of the Compound,not affected
Cc1ncc2n1-c1ccc(Cl)cc1C(c1ccccc1F)=NC2 [midazolam],midazolam AUCinf geometric mean ratio (90% CI),[2],"89.5 (80.7, 99.3)"
same,midazolam Cmax geometric mean ratio (90% CI),[2],"98.8 (89.6, 109)"
"COc1cc2c(cc1Cc1cccc(Cl)c1F)c(=O)c(C(=O)O)cn2[C@H](CO)C(C)C [the Compound, 6-(3-chloro-2-fluorobenzyl)-1-[(2S)-1-hydroxy-3-methylbutan-2-yl]-7-methoxy-4-oxo-1,4-dihydroquinoline-3-carboxylic acid]",systemic exposure,[1]; 85 mg of the Compound with ritonavir-boosted atazanavir compared with the 150 mg dose of the Compound alone,equivalent
same,AUCtau % GMR (90% CI),"[3]; Study 1, coadministration (the Compound 200 mg + ATV/r 300/100 mg QD) : alone, 14 days, healthy subjects",200%
same,the Compound exposures upon coadministration with ATV/r,[3]; coadministration with ATV/r,elevated
